Data: patent US9156801B2, “2-substituted oleanolic acid derivative, method preparing for same, and application thereof” (HANGZHOU BENSHENG PHARMACEUTICAL CO., LTD., priority 2011, dated 2015)
≈ marks a conversion by molar mass, not a printed value.

What was measured:
RPMI8226 cell line = assay: multiple myeloma cell growth inhibition, MTT; assay type: cell-based; conditions: Homo sapiens, RPMI-8226; for inhibition at 16 µg/mL: RPMI8226, 16 μg/mL compound, 72 h, read-out: IR (cell proliferation inhibition rate); for IC50: RPMI8226, 72 h
Summary of the method: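 RPMI8226 cells (6000 per well) in RPMI 1640 with 10% FBS were exposed to several concentrations of compound for 72 h at 37° C and 5% CO2. Viable cells were quantified by MTT, with inhibition set to 0% in untreated controls.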

Kasumi-1 cell line = assay: leukemia cell growth inhibition, MTT; assay type: cell-based; conditions: Homo sapiens; for inhibition at 16 µg/mL: Kasumi-1, 16 μg/mL compound, 72 h, read-out: IR (cell proliferation inhibition rate); for IC50: Kasumi-1, 72 h
Summary of the method: (§1)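 Leukemia cells (6000 per well) are grown in 1640 medium containing 10% fetal bovine serum, treated with several concentrations of test derivative, and incubated 72 hours at 37° C in 5% CO2. The relative viable count is then measured by MTT.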

NB4 cell line = assay: leukemia cell growth inhibition, MTT; assay type: cell-based; conditions: Homo sapiens, NB-4; for inhibition at 16 µg/mL: NB4, 16 μg/mL compound, 72 h, read-out: IR (cell proliferation inhibition rate); for IC50: NB4, 72 h
Summary of the method: as §1

H9 cell line = assay: leukemia cell growth inhibition, MTT; assay type: cell-based; conditions: Homo sapiens; for IC50: H9, 72 h; for inhibition at 16 µg/mL: H9, 16 μg/mL compound, 72 h, read-out: IR (cell proliferation inhibition rate)
Summary of the method: as §1

K562/adr cell line = assay: leukemia cell growth inhibition, MTT; assay type: cell-based; conditions: Homo sapiens, 72 h; for IC50: K562/Adr; for inhibition at 16 µg/mL: K562/adr, 16 μg/mL compound, read-out: IR (cell proliferation inhibition rate)
Summary of the method: as §1

Jurkat cell line = assay: leukemia cell growth inhibition, MTT; assay type: cell-based; conditions: Homo sapiens, 72 h; for inhibition at 16 µg/mL: 16 μg/mL compound, read-out: IR (cell proliferation inhibition rate)
Summary of the method: as §1

Hep G2 cell line = assay: solid tumor cell growth inhibition, MTT; assay type: cell-based, human; conditions: Homo sapiens; for inhibition at 16 µg/mL: HepG2, 72 h, Hep G2, 16 μg/mL compound, 72 h, read-out: IR (cell proliferation inhibition rate); for IC50: HepG2, Hep G2, 72 h
Summary of the method: (§2)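 DMEM high glucose, 10% FBS, 4000 cells per well. 24 h at 37° C/5% CO2 before dosing, 72 h with compound. MTT end-point, inhibition normalized to untreated control at 0%.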

PC-3 cell line = assay: solid tumor cell growth inhibition, MTT; assay type: cell-based; conditions: Homo sapiens; for IC50: PC-3, 72 h; for inhibition at 16 µg/mL: PC-3, 16 μg/mL compound, 72 h, read-out: IR (cell proliferation inhibition rate)
Summary of the method: as §2

Hep-2 cell line = assay: solid tumor cell growth inhibition, MTT; assay type: cell-based; conditions: Homo sapiens; for IC50: HEp-2, 72 h; for inhibition at 16 µg/mL: Hep-2, 16 μg/mL compound, 72 h, read-out: IR (cell proliferation inhibition rate)
Summary of the method: as §2

PANC-1 cell line = assay: solid tumor cell growth inhibition, MTT; assay type: cell-based; conditions: Homo sapiens; for IC50: PANC-1, 72 h; for inhibition at 16 µg/mL: PANC-1, 16 μg/mL compound, 72 h, read-out: IR (cell proliferation inhibition rate)
Summary of the method: as §2

MG-63 cell line = assay: solid tumor cell growth inhibition, MTT; assay type: cell-based; conditions: Homo sapiens; for IC50: MG-63, 72 h; for inhibition at 16 µg/mL: MG-63, 16 μg/mL compound, 72 h, read-out: IR (cell proliferation inhibition rate)
Summary of the method: as §2

Becap37 cell line = assay: solid tumor cell growth inhibition, MTT; assay type: cell-based; conditions: Homo sapiens; for inhibition at 16 µg/mL: Becap37, 16 μg/mL compound, 72 h, read-out: IR (cell proliferation inhibition rate); for IC50: Becap37, 72 h
Summary of the method: as §2

U87 MG cell line = assay: solid tumor cell growth inhibition, MTT; assay type: cell-based; conditions: Homo sapiens, U-87 MG, 72 h; for inhibition at 16 µg/mL: 16 μg/mL compound, read-out: IR (cell proliferation inhibition rate)
Summary of the method: as §2

A549 cell line = assay: solid tumor cell growth inhibition, MTT; assay type: cell-based; conditions: Homo sapiens; for IC50: A549, 72 h; for inhibition at 16 µg/mL: A549, 16 μg/mL compound, 72 h, read-out: IR (cell proliferation inhibition rate)
Summary of the method: as §2

CNE cell line = assay: solid tumor cell growth inhibition, MTT; assay type: cell-based; conditions: Homo sapiens, 72 h; for inhibition at 16 µg/mL: 16 μg/mL compound, read-out: IR (cell proliferation inhibition rate)
Summary of the method: as §2

CaES-17 cell line = assay: solid tumor cell growth inhibition, MTT; assay type: cell-based; conditions: Homo sapiens, CaEs17; for inhibition at 16 µg/mL: CaES-17, 16 μg/mL compound, 72 h, read-out: IR (cell proliferation inhibition rate); for IC50: CaES-17, 72 h
Summary of the method: as §2

Hela cell line = assay: solid tumor cell growth inhibition, MTT; assay type: cell-based; conditions: Homo sapiens, 72 h; for IC50: HeLa; for inhibition at 16 µg/mL: Hela, 16 μg/mL compound, read-out: IR (cell proliferation inhibition rate)
Summary of the method: as §2

RKO cell line = assay: solid tumor cell growth inhibition, MTT; assay type: cell-based; conditions: Homo sapiens, 72 h; for inhibition at 16 µg/mL: 16 μg/mL compound, read-out: IR (cell proliferation inhibition rate)
Summary of the method: as §2

MGC 803 cell line = assay: solid tumor cell growth inhibition, MTT; assay type: cell-based; conditions: Homo sapiens; for inhibition at 16 µg/mL: MGC 803, 16 μg/mL compound, 72 h, read-out: IR (cell proliferation inhibition rate); for IC50: MGC 803, 72 h
Summary of the method: as §2

SK-OV-3 cell line = assay: solid tumor cell growth inhibition, MTT; assay type: cell-based; conditions: Homo sapiens; for IC50: SK-OV-3, 72 h; for inhibition at 16 µg/mL: SK-OV-3, 16 μg/mL compound, 72 h, read-out: IR (cell proliferation inhibition rate)
Summary of the method: as §2

| IC50 (RPMI8226 cell line) | IC50 (Kasumi-1 cell line) | IC50 (NB4 cell line) | IC50 (H9 cell line) | IC50 (K562/adr cell line) | IC50 (Jurkat cell line) | IC50 (Hep G2 cell line) | IC50 (PC-3 cell line) | IC50 (Hep-2 cell line) | IC50 (PANC-1 cell line) | SMILES | inhibition at 16 µg/mL (RPMI8226 cell line) | inhibition at 16 µg/mL (Kasumi-1 cell line) | inhibition at 16 µg/mL (NB4 cell line) | inhibition at 16 µg/mL (H9 cell line) | inhibition at 16 µg/mL (K562/adr cell line) | inhibition at 16 µg/mL (Jurkat cell line) | inhibition at 16 µg/mL (Hep G2 cell line) | inhibition at 16 µg/mL (PC-3 cell line) | inhibition at 16 µg/mL (Hep-2 cell line) | inhibition at 16 µg/mL (PANC-1 cell line) | other results |
| --- | --- | --- | --- | --- | --- | --- | --- | --- | --- | --- | --- | --- | --- | --- | --- | --- | --- | --- | --- | --- | --- |
| > 16 µg/mL | > 16 µg/mL | 10.7 µg/mL (≈ 18.3 µM) | 15.5 µg/mL (≈ 26.6 µM) | 10.8 µg/mL (≈ 18.4 µM) | > 16 µg/mL | > 16 µg/mL | > 16 µg/mL | > 16 µg/mL | > 16 µg/mL | CCOCCNC(=O)C1C[C@@]2(C)C(CC[C@]3(C)C2CC=C2C4CC(C)(C)CC[C@]4(C(=O)OC)CC[C@]23C)C(C)(C)C1=O (stereo partly drawn) [BS-OA-053] | 29.5% | 23.2% | 71.3% | 54.6% | 60.9% | 13% | 6.8% | 38.8% | -10% | -3.3% | IC50 (MG-63 cell line): > 16 µg/mL; inhibition at 16 µg/mL (MG-63 cell line): -32.5%; inhibition at 16 µg/mL (Becap37 cell line): -10.2%; IC50 (Becap37 cell line): > 16 µg/mL; inhibition at 16 µg/mL (U87 MG cell line): 20.1%; IC50 (U87 MG cell line): > 16 µg/mL; IC50 (A549 cell line): > 16 µg/mL; inhibition at 16 µg/mL (A549 cell line): 2%; inhibition at 16 µg/mL (CNE cell line): 9.9%; IC50 (CNE cell line): > 16 µg/mL; inhibition at 16 µg/mL (CaES-17 cell line): -13.1%; IC50 (CaES-17 cell line): > 16 µg/mL; IC50 (Hela cell line): > 16 µg/mL; inhibition at 16 µg/mL (Hela cell line): 27.5%; inhibition at 16 µg/mL (RKO cell line): -55.6%; IC50 (RKO cell line): > 16 µg/mL; inhibition at 16 µg/mL (MGC 803 cell line): 7.8%; IC50 (MGC 803 cell line): > 16 µg/mL; IC50 (SK-OV-3 cell line): > 16 µg/mL; inhibition at 16 µg/mL (SK-OV-3 cell line): 22.7% |
| 7.18 µg/mL (≈ 11.5 µM) | 16 µg/mL (≈ 25.6 µM) | 9.74 µg/mL (≈ 15.6 µM) | 12.7 µg/mL (≈ 20.4 µM) | 8.87 µg/mL (≈ 14.2 µM) | > 16 µg/mL | > 16 µg/mL | > 16 µg/mL | > 16 µg/mL | > 16 µg/mL | COC(=O)[C@]12CCC(C)(C)C[C@H]1C1=CC[C@@H]3[C@@]4(C)CC(C(=O)NCCN5CCOCC5)C(=O)C(C)(C)[C@@H]4CC[C@@]3(C)[C@]1(C)CC2 (stereo partly drawn) [BS-OA-059] | 96.6% | 48.7% | 86.7% | 67.7% | 80.5% | 23.8% | 0.6% | 34.1% | 0% | 10.4% | IC50 (MG-63 cell line): > 16 µg/mL; inhibition at 16 µg/mL (MG-63 cell line): 27%; inhibition at 16 µg/mL (Becap37 cell line): 4.7%; IC50 (Becap37 cell line): > 16 µg/mL; inhibition at 16 µg/mL (U87 MG cell line): 30.6%; IC50 (U87 MG cell line): > 16 µg/mL; IC50 (A549 cell line): > 16 µg/mL; inhibition at 16 µg/mL (A549 cell line): 11.8%; inhibition at 16 µg/mL (CNE cell line): 20.6%; IC50 (CNE cell line): > 16 µg/mL; inhibition at 16 µg/mL (CaES-17 cell line): 34%; IC50 (CaES-17 cell line): > 16 µg/mL; IC50 (Hela cell line): 16 µg/mL (≈ 25.6 µM); inhibition at 16 µg/mL (Hela cell line): 51.8%; inhibition at 16 µg/mL (RKO cell line): 1.8%; IC50 (RKO cell line): > 16 µg/mL; inhibition at 16 µg/mL (MGC 803 cell line): -7.4%; IC50 (MGC 803 cell line): > 16 µg/mL; IC50 (SK-OV-3 cell line): > 16 µg/mL; inhibition at 16 µg/mL (SK-OV-3 cell line): 35.2% |
| 0.74 µg/mL (≈ 1.14 µM) | 5.67 µg/mL (≈ 8.7 µM) | 4.59 µg/mL (≈ 7.04 µM) | 4.33 µg/mL (≈ 6.64 µM) | 0.89 µg/mL (≈ 1.37 µM) | 2.5 µg/mL (≈ 3.83 µM) | 4.77 µg/mL (≈ 7.32 µM) | 6.82 µg/mL (≈ 10.5 µM) | 8.25 µg/mL (≈ 12.7 µM) | 9.69 µg/mL (≈ 14.9 µM) | COC(=O)[C@]12CCC(C)(C)CC1C1=CCC3[C@@]4(C)CC(C(=O)NCCCN5CCN(C)CC5)C(=O)C(C)(C)C4CC[C@@]3(C)[C@]1(C)CC2 (stereo partly drawn) [BS-OA-078] | 99.1% | 97.9% | 100% | 97.5% | 99.1% | 98.3% | 99.7% | 98.4% | 97.3% | 100% | IC50 (MG-63 cell line): 5.7 µg/mL (≈ 8.74 µM); inhibition at 16 µg/mL (MG-63 cell line): 100%; inhibition at 16 µg/mL (Becap37 cell line): 98.1%; IC50 (Becap37 cell line): 6.23 µg/mL (≈ 9.56 µM); inhibition at 16 µg/mL (U87 MG cell line): 98.6%; IC50 (U87 MG cell line): 3 µg/mL (≈ 4.6 µM); IC50 (A549 cell line): 3.58 µg/mL (≈ 5.49 µM); inhibition at 16 µg/mL (A549 cell line): 97.6%; inhibition at 16 µg/mL (CNE cell line): 99.7%; IC50 (CNE cell line): 5.01 µg/mL (≈ 7.68 µM); inhibition at 16 µg/mL (CaES-17 cell line): 99.4%; IC50 (CaES-17 cell line): 3.61 µg/mL (≈ 5.54 µM); IC50 (Hela cell line): 4.54 µg/mL (≈ 6.96 µM); inhibition at 16 µg/mL (Hela cell line): 99.4%; inhibition at 16 µg/mL (RKO cell line): 97.5%; IC50 (RKO cell line): 3.91 µg/mL (≈ 6 µM); inhibition at 16 µg/mL (MGC 803 cell line): 99.5%; IC50 (MGC 803 cell line): 5.26 µg/mL (≈ 8.07 µM); IC50 (SK-OV-3 cell line): 5.49 µg/mL (≈ 8.42 µM); inhibition at 16 µg/mL (SK-OV-3 cell line): 98.9% |
